Data as given in patent publication US20170152269A1, “FUSED BICYCLIC COMPOUNDS AND THEIR USE AS CDK INHIBITORS” (priority 2016, published 2017).

Experiments:
[1] = target: T1, CDK5 (Homo sapiens, UniProt Q00535); test: Lance TR-FRET kinase assay, CDK5; assay type: biochemical; conditions: ATP 20 μM, 60 min, read-out: CDK 5 inhibitory activity (IC50)
T1 construct: purchased ThermoFisher (Waltham, Mass.)
Description: (§1) Time Resolved-Fluorescent Resonance Energy Transfer (TR-FRET) was used to determine inhibitory ability of compounds A1˜A19, B1s and B1˜B12 against the enzymatic activity of CDK1, CDK2, CDK4, CDK5, CDK6, CDK7, and CDK9.
(§2) Inhibitory activity of compounds against CDK1/2/4/5/6/7 was assessed using Lance TR-FRET assay kits from Perkin Elmer Life Sciences (Waltham, Mass.). CDK1/2/4/5/6/7 enzymes were purchased from ThermoFisher (Waltham, Mass.). 2.5 μL of compound solutions and 2.5 μL of enzyme solutions in kinase assay buffer, which was 50 mM HEPES (pH 7.5) with 1 mM EGTA, 1 mM MgCl2, 2 mM DTT, and 0.01% Tween-20, were added into a white OptiPlate-384 plate followed by adding 5 μL of fluorescently labeled peptide substrates (Ulight-4E-BP1 for CDK4/6 and Ulight-MBP for CDK1/2/7/9) and ATP mixture solutions. Final concentrations of substrates and DMSO were 100 nM and 0.5%, respectively. Concentrations of ATP and different CDK enzymes were adjusted accordingly to achieve optimal enzymatic activities. Final CDK concentrations were 100, 500, 600, 100, 50, and 200 ng/well and ATP concentrations were 30, 50, 100, 20, 100, and 50 μM for CDK1/2/4/5/6/7, respectively. Assay plates were covered to protect from light and spun for 1 min at 700 RPM. Reactions were allowed to perform for 60 minutes in dark with gentle shaking at room temperature after which 5 μL of 40 mM EDTA in detection buffer was added to stop reactions followed 5 μL of the Eu labeled antibodies giving final concentrations of 2 nM to detect the phosphorylation of the peptide substrates. Assay plates were read with the EnVision™ Multilabel Reader in TR-FRET mode (excitation at 320 nm and emission at 665 nm). The percent of inhibition was calculated from the means of data points using the formula: 100−(Signalcompound−NoSignalbackground)*100/(Signalvehicle−NoSignalbackground). The IC50s were determined with GraphPad Prism by the non-linear sigmoidal curve fitting of data from 10 doses.

[2] = target: T2, CDK1 (Homo sapiens, UniProt P06493); test: Lance TR-FRET kinase assay, CDK1; assay type: biochemical; conditions: ATP 30 μM, 60 min, read-out: CDK 1 inhibitory activity (IC50)
T2 construct: purchased ThermoFisher (Waltham, Mass.)
Description: as §1, §2

[3] = target: T3, CDK4 (Homo sapiens, UniProt P11802); test: Lance TR-FRET kinase assay, CDK4; assay type: biochemical; conditions: ATP 100 μM, 60 min, read-out: CDK 4 inhibitory activity (IC50)
T3 construct: purchased ThermoFisher (Waltham, Mass.)
Description: as §2, with “2.5 μL of compound solutions and 2.5 μL of enzyme solutions in kinase assay buffer, which was 50 mM HEPES (pH 7.5) with 1 mM EGTA, 1 mM MgCl2, 2 mM DTT, and 0.01% Tween-20, were added into a white OptiPlate-384 plate followed by adding 5 μL of fluorescently labeled peptide substrates (Ulight-4E-BP1 for CDK4/6 and Ulight-MBP for CDK1/2/7/9) and ATP mixture solutions.” left out, “Assay plates were read with the EnVision™ Multilabel Reader in TR-FRET mode (excitation at 320 nm and emission at 665 nm).” left out

[4] = target: T4, CDK7 (Homo sapiens, UniProt P50613); test: Lance TR-FRET kinase assay, CDK7; assay type: biochemical; conditions: ATP 50 μM, 60 min; for IC50: read-out: CDK 7 inhibitory activity (IC50)
T4 construct: purchased ThermoFisher (Waltham, Mass.)
Description: as §2, with “2.5 μL of compound solutions and 2.5 μL of enzyme solutions in kinase assay buffer, which was 50 mM HEPES (pH 7.5) with 1 mM EGTA, 1 mM MgCl2, 2 mM DTT, and 0.01% Tween-20, were added into a white OptiPlate-384 plate followed by adding 5 μL of fluorescently labeled peptide substrates (Ulight-4E-BP1 for CDK4/6 and Ulight-MBP for CDK1/2/7/9) and ATP mixture solutions.” left out, “Assay plates were read with the EnVision™ Multilabel Reader in TR-FRET mode (excitation at 320 nm and emission at 665 nm).” left out

[5] = target: T5, CDK2 (Homo sapiens, UniProt P24941); test: Lance TR-FRET kinase assay, CDK2; assay type: biochemical; conditions: ATP 50 μM, 60 min, read-out: CDK 2 inhibitory activity (IC50)
T5 construct: purchased ThermoFisher (Waltham, Mass.)
Description: as §1, §2

[6] = target: T6, CDK6 (Homo sapiens, UniProt Q00534); test: Lance TR-FRET kinase assay, CDK6; assay type: biochemical
T6 construct: purchased ThermoFisher (Waltham, Mass.)
Description: as §1, §2

[7] = target: T7, CDK9/cyclin T1 (Homo sapiens, UniProt P50750); test: LanthaScreen Eu kinase binding assay, CDK9; conditions: tracer 236 displacement, CDK9/cyclin T1 5 nM, 1 hour; read-out: CDK 9 inhibitory activity (IC50)
T7 construct: purchased ThermoFisher (Waltham, Mass.)
Description: as §1
The CDK9 kinase inhibitory activity of compounds was tested in the LanthaScreen Eu kinase binding assay from ThermoFisher. LanthaScreen® Eu Kinase binding assays are based on the binding and displacement of a proprietary, Alexa Fluor® 647-labeled, ATP-competitive kinase inhibitor scaffold (kinase tracer) to CDK9. CDK9/cyclin T1, Kinase tracer 236 and LanthaScreen® Eu-anti-His Antibody were purchased form ThermoFisher (Waltham, Mass.). 5 μL of CDK9/cyclin T1 (final 5 nM)/antibody (final 2 nM) mixture, 5 μL of compound in kinase buffer, and 5 μL of tracer (final 30 nM) were added to wells of a white OptiPlate-384 plate in this specific order. Assay plates were covered to protect from light, spun for 1 min at 700 RPM and incubated at room temperature for 1 hour. Assay plates were read with the EnVision™ Multilabel Reader in TR-FRET mode (excitation at 320 nm and emission at 665 nm). The percent of inhibition was calculated from the means of data points using the formula: 100−(Signalcompound−NoSignalbackgound)*100/(Signalvehicle−NoSignalbackground). The IC50s were determined with GraphPad Prism by the non-linear sigmoidal curve fitting of data from 10 doses.

T1 sequence (Q00535 whole entry): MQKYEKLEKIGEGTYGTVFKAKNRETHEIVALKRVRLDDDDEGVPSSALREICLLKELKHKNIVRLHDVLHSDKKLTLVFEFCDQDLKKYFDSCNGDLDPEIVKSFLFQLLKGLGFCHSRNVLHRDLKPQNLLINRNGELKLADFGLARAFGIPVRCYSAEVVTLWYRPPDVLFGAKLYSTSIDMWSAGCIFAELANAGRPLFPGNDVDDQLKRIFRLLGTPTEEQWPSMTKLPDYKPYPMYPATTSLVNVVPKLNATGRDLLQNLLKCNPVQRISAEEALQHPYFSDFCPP
T1 sequence (Q15078 whole entry partner): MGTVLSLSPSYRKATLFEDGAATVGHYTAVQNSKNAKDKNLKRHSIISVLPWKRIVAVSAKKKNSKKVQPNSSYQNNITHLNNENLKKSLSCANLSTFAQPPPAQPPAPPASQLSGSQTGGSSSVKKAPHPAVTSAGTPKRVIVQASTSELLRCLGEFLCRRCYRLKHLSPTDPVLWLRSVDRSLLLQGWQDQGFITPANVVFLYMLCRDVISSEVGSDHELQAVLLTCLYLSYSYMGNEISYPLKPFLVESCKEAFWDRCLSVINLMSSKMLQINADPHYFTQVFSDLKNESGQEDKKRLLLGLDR
T3 sequence (P11802 whole entry): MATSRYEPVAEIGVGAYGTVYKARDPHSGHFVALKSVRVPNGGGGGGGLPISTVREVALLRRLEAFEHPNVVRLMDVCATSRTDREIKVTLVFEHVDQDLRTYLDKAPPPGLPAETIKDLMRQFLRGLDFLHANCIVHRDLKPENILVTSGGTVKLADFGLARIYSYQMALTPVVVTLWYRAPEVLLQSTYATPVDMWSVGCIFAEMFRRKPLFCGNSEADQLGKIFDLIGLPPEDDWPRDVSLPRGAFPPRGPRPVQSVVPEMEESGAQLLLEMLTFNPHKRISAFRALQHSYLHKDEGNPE
T3 sequence (P24385 whole entry partner): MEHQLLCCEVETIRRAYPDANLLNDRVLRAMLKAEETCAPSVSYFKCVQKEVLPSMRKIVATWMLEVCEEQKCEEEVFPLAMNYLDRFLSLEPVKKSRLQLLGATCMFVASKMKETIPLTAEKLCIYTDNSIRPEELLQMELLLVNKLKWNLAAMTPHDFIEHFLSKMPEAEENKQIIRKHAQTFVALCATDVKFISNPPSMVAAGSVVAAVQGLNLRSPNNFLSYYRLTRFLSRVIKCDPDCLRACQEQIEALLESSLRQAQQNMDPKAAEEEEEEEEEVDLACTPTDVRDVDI
T6 sequence (Q00534 whole entry): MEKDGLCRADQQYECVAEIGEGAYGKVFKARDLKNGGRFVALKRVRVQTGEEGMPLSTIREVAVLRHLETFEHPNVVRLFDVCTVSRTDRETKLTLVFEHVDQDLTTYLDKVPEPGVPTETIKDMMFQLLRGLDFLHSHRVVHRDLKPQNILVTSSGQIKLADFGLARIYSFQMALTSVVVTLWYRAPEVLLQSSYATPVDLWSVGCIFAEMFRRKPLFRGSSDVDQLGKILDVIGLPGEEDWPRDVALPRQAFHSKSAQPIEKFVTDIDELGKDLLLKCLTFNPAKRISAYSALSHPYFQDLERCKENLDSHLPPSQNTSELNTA
T6 sequence (P24385 whole entry partner): as the sequence (P24385 whole entry partner) above
T2 sequence (P06493 whole entry): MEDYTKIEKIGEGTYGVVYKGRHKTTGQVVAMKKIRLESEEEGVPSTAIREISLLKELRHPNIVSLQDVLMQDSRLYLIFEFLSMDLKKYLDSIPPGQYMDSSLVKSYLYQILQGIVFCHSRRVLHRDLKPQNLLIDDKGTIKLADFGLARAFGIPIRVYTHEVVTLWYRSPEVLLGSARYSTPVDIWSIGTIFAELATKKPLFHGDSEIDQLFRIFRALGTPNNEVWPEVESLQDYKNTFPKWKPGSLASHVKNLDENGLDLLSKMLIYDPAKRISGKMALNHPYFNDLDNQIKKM
T2 sequence (P14635 whole entry partner): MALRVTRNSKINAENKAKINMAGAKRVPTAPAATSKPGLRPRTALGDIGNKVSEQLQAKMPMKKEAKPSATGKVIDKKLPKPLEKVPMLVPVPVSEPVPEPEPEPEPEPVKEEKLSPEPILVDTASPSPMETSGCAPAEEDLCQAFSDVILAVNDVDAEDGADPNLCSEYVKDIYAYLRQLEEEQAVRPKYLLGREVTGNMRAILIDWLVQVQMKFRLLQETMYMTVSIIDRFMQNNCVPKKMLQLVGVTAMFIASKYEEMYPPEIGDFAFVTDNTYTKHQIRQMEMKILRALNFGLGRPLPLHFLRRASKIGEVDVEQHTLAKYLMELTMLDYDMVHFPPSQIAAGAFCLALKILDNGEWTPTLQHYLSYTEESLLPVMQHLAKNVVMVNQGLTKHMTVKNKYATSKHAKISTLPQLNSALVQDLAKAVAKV
T7 sequence (P50750 whole entry): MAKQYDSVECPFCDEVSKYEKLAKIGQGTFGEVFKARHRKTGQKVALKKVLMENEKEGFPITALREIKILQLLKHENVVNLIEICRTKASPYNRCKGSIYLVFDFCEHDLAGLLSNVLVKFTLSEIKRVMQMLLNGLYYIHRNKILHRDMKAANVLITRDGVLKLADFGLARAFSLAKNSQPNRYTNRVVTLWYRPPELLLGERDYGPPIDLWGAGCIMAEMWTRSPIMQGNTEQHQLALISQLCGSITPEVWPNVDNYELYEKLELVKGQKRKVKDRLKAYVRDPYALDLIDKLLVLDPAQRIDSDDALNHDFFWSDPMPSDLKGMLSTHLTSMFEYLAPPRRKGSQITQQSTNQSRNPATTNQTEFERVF
T7 sequence (O60563 whole entry partner): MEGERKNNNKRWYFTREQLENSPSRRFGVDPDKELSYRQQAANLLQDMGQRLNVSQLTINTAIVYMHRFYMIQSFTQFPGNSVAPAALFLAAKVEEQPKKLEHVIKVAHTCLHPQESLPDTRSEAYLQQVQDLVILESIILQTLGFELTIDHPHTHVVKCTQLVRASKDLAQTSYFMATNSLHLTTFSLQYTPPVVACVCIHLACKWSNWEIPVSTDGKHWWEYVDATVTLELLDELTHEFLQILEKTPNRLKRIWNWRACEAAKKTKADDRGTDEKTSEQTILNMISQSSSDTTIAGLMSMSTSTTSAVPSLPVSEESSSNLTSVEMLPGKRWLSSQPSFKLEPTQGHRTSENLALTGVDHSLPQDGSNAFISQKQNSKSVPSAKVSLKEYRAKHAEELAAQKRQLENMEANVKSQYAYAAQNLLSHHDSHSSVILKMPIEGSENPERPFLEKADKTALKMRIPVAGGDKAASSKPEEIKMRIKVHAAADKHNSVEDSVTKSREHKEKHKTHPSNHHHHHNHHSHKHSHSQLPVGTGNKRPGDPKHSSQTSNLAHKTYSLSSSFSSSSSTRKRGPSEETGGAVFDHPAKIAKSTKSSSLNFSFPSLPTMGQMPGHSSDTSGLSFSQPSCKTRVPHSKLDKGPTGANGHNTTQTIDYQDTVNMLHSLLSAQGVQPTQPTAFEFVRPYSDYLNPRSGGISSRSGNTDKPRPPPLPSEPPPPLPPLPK
T4 sequence (P50613 whole entry): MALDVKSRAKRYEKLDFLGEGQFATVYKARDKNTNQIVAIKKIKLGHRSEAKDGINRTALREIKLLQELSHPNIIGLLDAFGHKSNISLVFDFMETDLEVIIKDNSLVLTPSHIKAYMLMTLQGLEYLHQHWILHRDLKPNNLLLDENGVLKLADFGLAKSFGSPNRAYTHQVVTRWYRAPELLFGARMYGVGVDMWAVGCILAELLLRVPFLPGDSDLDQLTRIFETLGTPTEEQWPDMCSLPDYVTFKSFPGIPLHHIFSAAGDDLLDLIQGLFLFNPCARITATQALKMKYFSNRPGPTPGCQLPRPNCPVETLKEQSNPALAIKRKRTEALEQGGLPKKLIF
T4 sequence (P51946 whole entry partner): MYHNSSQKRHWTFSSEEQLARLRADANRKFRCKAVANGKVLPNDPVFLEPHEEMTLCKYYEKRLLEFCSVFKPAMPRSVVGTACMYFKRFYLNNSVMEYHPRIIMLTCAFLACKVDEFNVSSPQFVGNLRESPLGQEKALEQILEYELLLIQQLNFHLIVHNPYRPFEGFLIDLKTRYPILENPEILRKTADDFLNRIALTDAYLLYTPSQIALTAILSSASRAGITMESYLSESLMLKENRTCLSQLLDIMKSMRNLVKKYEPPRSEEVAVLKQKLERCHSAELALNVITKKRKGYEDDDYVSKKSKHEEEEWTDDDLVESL
T4 sequence (P51948 whole entry partner): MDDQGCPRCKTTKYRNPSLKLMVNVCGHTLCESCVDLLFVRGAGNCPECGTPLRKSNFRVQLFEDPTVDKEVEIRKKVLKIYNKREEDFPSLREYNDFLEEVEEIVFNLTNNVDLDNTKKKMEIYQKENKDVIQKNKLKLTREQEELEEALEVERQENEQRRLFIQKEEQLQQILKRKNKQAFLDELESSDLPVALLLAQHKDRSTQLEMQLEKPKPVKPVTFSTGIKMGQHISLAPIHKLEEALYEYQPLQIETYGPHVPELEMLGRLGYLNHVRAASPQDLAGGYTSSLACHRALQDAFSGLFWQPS

Row | Compound | IC50 [1] | IC50 [2] | IC50 [3] | IC50 [4] | IC50 [5] | IC50 [6] | IC50 [7] | CDK 7 inhibitory activity (IC50) [4]
1 | N#Cc1sc2cnc(Nc3ccc(N4CCNCC4)nc3)cc2c1C1CCCC1 [Compound B2, 3-cyclopentyl-5-((6-(piperazin-1-yl)pyridin-3-yl)amino)thieno[2,3-c]pyridine-2-carbonitrile] |  | 77.4 nM | 2.4 nM | 53.9 nM | 13.3 nM | 1 nM | 6.6 nM | 
2 | N#Cc1sc2cnc(Nc3ccc(N4CCNCC4)cc3)cc2c1C1CCCC1 [Compound B3, 3-cyclopentyl-5-((4-(piperazin-1-yl)phenyl)amino)thieno[2,3-c]pyridine-2-carbonitrile] |  | 15.1 nM | 1.9 nM | 31.4 nM | 5.2 nM | 0.2 nM | 1.8 nM | 
3 | CN1CCN(c2ccc(Nc3cc4c(C5CCCC5)c(C#N)sc4cn3)nc2)CC1 [Compound B5, 3-cyclopentyl-5-((5-(4-methylpiperazin-1-yl)pyridin-2-yl)amino)thieno[2,3-c]pyridine-2-carbonitrile] |  | 9.1 nM | 0.7 nM | 22.1 nM | 3.3 nM | 0.3 nM | 1 nM | 
4 | N#Cc1sc2cnc(Nc3ccc(N4CCOCC4)cc3)cc2c1C1CCCC1 [Compound B6, 3-cyclopentyl-5-((4-morpholinophenyl)amino)thieno[2,3-c]pyridine-2-carbonitrile] |  | 1680 nM | 222 nM |  | 39.6 nM | 19 nM | 951 nM | inactive
5 | N#Cc1sc2cnc(Nc3ccc(N4CCOCC4)nc3)cc2c1C1CCCC1 [Compound B7, 3-cyclopentyl-5-((6-morpholinopyridin-3-yl)amino)thieno[2,3-c]pyridine-2-carbonitrile] |  | 324 nM | 61.9 nM |  | 19.4 nM | 19.4 nM | 95.6 nM | inactive
6 | N#Cc1sc2cnc(Nc3cnc(N4CCOCC4)nc3)cc2c1C1CCCC1 [Compound B8, 3-cyclopentyl-5-((2-morpholinopyrimidin-5-yl)amino)thieno[2,3-c]pyridine-2-carbonitrile] |  | 22000 nM | 8660 nM |  | 824 nM | 791 nM | 4590 nM | inactive
7 | N#Cc1sc2cnc(Nc3cccc(N4CCOCC4)c3)cc2c1C1CCCC1 [Compound B10, 3-cyclopentyl-5-((3-morpholinophenyl)amino)thieno[2,3-c]pyridine-2-carbonitrile] |  | 834 nM | 1540 nM |  | 308 nM | 838 nM | 308 nM | inactive
8 | CS(=O)(=O)N1CCN(c2ccc(Nc3cc4c(C5CCCC5)c(C#N)sc4cn3)nc2)CC1 [Compound B11, 3-cyclopentyl-5-((5-(4-(methylsulfonyl)piperazin-1-yl)pyridin-2-yl)amino)thieno[2,3-c]pyridine-2-carbonitrile] |  | 101 nM | 17.7 nM |  | 49.9 nM | 5.5 nM | 8.1 nM | inactive

Further lines, with some results ahead:

Row | IC50 [1] | IC50 [2] | IC50 [3] | IC50 [4] | IC50 [5] | IC50 [6] | IC50 [7] | Compound | CDK 7 inhibitory activity (IC50) [4]
9 | 262 nM | 162 nM | 1.2 nM | 1100 nM | 346 nM | 0.66 nM | 5.3 nM | CN(C)C(=O)c1sc2cnc(Nc3ccc(N4CCNCC4)cn3)cc2c1C1CCCC1 [Compound A1, 3-cyclopentyl-N,N-dimethyl-5-((5-(piperazin-1-yl)pyridin-2-yl)amino)thieno[2,3-c]pyridine-2-carboxamide] | 
10 | 266 nM | 39.5 nM | 1.4 nM | 3290 nM | 942 nM | 1.1 nM | 13.4 nM | CN(C)C(=O)c1sc2cnc(Nc3ccc(N4CCNCC4)cn3)cc2c1C1CCCCC1 [Compound A5, 3-cyclohexyl-N,N-dimethyl-5-((5-(piperazin-1-yl)pyridin-2-yl)amino)thieno[2,3-c]pyridine-2-carboxamide] | 
11 | 24.4 nM | 5.4 nM | 1.1 nM | 14.9 nM | 2.8 nM | 0.3 nM | 1.3 nM | N#Cc1sc2cnc(Nc3ccc(N4CCNCC4)cn3)cc2c1C1CCCC1 [Compound B1, 3-cyclopentyl-5-((5-(piperazin-1-yl)pyridin-2-yl)amino)thieno[2,3-c]pyridine-2-carbonitrile] | 
12 |  | 31.5 nM | 1.9 nM | 47 nM | 10.4 nM | 0.7 nM | 8.6 nM | CN1CCN(c2ccc(Nc3cc4c(C5CCCC5)c(C#N)sc4cn3)cc2)CC1 [Compound B4, 3-cyclopentyl-5-((4-(4-methylpiperazin-1-yl)phenyl)amino)thieno[2,3-c]pyridine-2-carbonitrile] | 
13 |  | 170 nM | 582 nM | 872 nM | 70.8 nM | 120 nM | 96.5 nM | CN1CCN(c2cccc(Nc3cc4c(C5CCCC5)c(C#N)sc4cn3)c2)CC1 [Compound B9, 3-cyclopentyl-5-((3-(4-methylpiperazin-1-yl)phenyl)amino)thieno[2,3-c]pyridine-2-carbonitrile] | 
14 |  | 26.2 nM | 4.1 nM | 9790 nM | 10.3 nM | 1.4 nM | 2.5 nM | CC(=O)N1CCN(c2ccc(Nc3cc4c(C5CCCC5)c(C#N)sc4cn3)nc2)CC1 [Compound B12, 5-((5-(4-acetylpiperazin-1-yl)pyridin-2-yl)amino)-3-cyclopentylthieno[2,3-c]pyridine-2-carbonitrile] | 
